≈ marks a conversion by molar mass, not a printed value.
Columns and labels:
[1] = system: H9 (acute lymphoblastic leukemia, ALL); experiment: MTT growth inhibition of leukemia cells, 72 h; format: cell-based, human; conditions: Homo sapiens, MTT
Excerpt: (§1) Leukemia cell lines: leukemia cell lines: K562/adr (drug-resistant, chronic myeloid leukemia, CML), NB4 (acute promyelocytic leukemia, AML), Kasumi-1 (acute myeloid leukemia M2 type, AML-M2), Jurkat (acute lymphoblastic leukemia, ALL), all of which are donated by Cancer Research Institute of Zhejiang University, China; and H9 (acute lymphoblastic leukemia, ALL), which is purchased from China Center for Type Culture Collection (CCTCC).
(§2) Reagents: The standard sample of homoharringtonine (HHT) is purchased from Taihua Natural Plant Pharmaceutical Co., Ltd., Shaanxi, China, the homoharringtonine derivatives of the present invention.
(§3) Obtaining 6000 well-growing leukemia cells and inoculating them into wells of a 96-well cell culture plate. The culture medium is the 1640 cell culture medium containing 10% fetal bovine serum. After adding the homoharringtonine derivatives of different concentrations and mixing uniformly, placing the plate in a carbon dioxide cell incubator (5% CO2) at 37° C. and incubated for 72 hours. Then the viable cell concentration is determined by the MTT method. In this experiment, the cell viability in control group (not treated with any compound) is set as 100%. On such basis, the cell viability (%) after treatment and the 50% inhibiting concentration of the compound for the leukemia cell growth at 72 hours (IC50 value of 72 hours) are calculated.

[2] = system: Jurkat (acute lymphoblastic leukemia, ALL); experiment: MTT growth inhibition of leukemia cells, 72 h; format: cell-based, human; conditions: Homo sapiens, Jurkat
Excerpt: as §1, §2, §3

[3] = system: K562/adr (drug-resistant, chronic myeloid leukemia, CML); experiment: MTT growth inhibition of leukemia cells, 72 h; format: cell-based, human; conditions: Homo sapiens, K562/Adr, MTT
Excerpt: as §1, §2, §3

[4] = system: Kasumi-1 (acute myeloid leukemia M2 type, AML-M2); experiment: MTT growth inhibition of leukemia cells, 72 h; format: cell-based, human
Excerpt: as §1, §2, §3

[5] = system: NB4 (acute promyelocytic leukemia, AML); experiment: MTT growth inhibition of leukemia cells, 72 h; format: cell-based, human; conditions: Homo sapiens, MTT
Excerpt: as §1, §2, §3

[6] = system: RPMI8226 (multiple myeloma); experiment: MTT growth inhibition of multiple myeloma cells, 72 h; format: cell-based, human; conditions: Homo sapiens, RPMI-8226, MTT
Experimental: Multiple myeloma and lymphoma cell lines: RPMI8226 (multiple myeloma), purchased from Fuxiang Bio-tech Co. Ltd., Shanghai, China.
as §3

A549 (human lung cancer) = experiment: MTT growth inhibition of human solid tumor cells, 72 h; format: cell-based; conditions: Homo sapiens, A549
Experimental: (§4) Human solid tumor cell lines: Hep-2 (laryngeal carcinoma), A549 (human lung cancer), CaES-17 (esophageal cancer cell), PC-3 (prostate cancer), CNE (nasopharyngeal carcinoma cell), and SK-OV-3 (ovarian cancer cell), all of which are purchased from China Center For Type Culture Collection; RKO (human colon adenocarcinoma cell), MGC 803 (human gastric cancer cell), MG63 (osteosarcoma) and U87 MG (malignant glioma cell), all of which are purchased from Fuxiang Bio-tech Co. Ltd., Shanghai, China; PANC-1 (pancreatic cancer), Huh7 (human liver cancer cell), Becap37 (human breast cancer cell), and Hela (human cervical cancer cell), all of which are donated by Cancer Research Institute of Zhejiang University, China.
(§5) Obtaining 4000 well-growing human solid tumor cells and inoculating them into wells of a 96-well cell culture plate. The culture medium is DMEM High Glucose cell culture medium containing 10% fetal bovine serum. The plate is placed in a carbon dioxide cell incubator (5% CO2) at 37° C. and incubated for 24 hours. After adding the homoharringtonine derivatives of different concentration and mixing uniformly, the plate is placed in a carbon dioxide cell incubator (5% CO2) at 37° C. and incubated for 72 hours. Then the viable cell concentration is determined by the MTT method and the cell viability (%) after drug treatment is calculated. In this experiment, the cell viability of control group (not treated with any compound) is set as 100%.

[7] = system: Becap37 (human breast cancer cell); experiment: as above; format: cell-based; conditions: Homo sapiens
Experimental: as §4, §5

[8] = system: CNE (nasopharyngeal carcinoma cell); experiment: as above; format: cell-based; conditions: Homo sapiens, MTT
Experimental: as §4, §5

[9] = system: CaES-17 (esophageal cancer cell); experiment: as above; format: cell-based; conditions: Homo sapiens, CaEs17
Experimental: as §4, §5

[10] = system: Hela (human cervical cancer cell); experiment: as above; format: cell-based; conditions: Homo sapiens, HeLa, MTT
Experimental: as §4, §5

[11] = system: Hep-2 (laryngeal carcinoma); experiment: as above; format: cell-based; conditions: Homo sapiens, HEp-2
Experimental: as §4, §5

[12] = system: Huh7 (human liver cancer cell); experiment: as above; format: cell-based; conditions: Homo sapiens, Huh-7
Experimental: as §4, §5

MG63 (osteosarcoma) = experiment: as above; format: cell-based; conditions: Homo sapiens, MG-63, MTT
Experimental: as §4, §5

[13] = system: MGC 803 (human gastric cancer cell); experiment: as above; format: cell-based; conditions: Homo sapiens, MGC-803
Experimental: as §4, §5

[14] = system: PANC-1 (pancreatic cancer); experiment: as above; format: cell-based; conditions: Homo sapiens, PANC-1, MTT
Experimental: as §4, §5

PC-3 (prostate cancer) = experiment: as above; format: cell-based; conditions: Homo sapiens, MTT
Experimental: as §4, §5

[15] = system: RKO (human colon adenocarcinoma cell); experiment: as above; format: cell-based; conditions: Homo sapiens, MTT
Experimental: as §4, §5

[16] = system: SK-OV-3 (ovarian cancer cell); experiment: as above; format: cell-based; conditions: Homo sapiens, SK-OV-3, MTT
Experimental: as §4, §5

[17] = system: U87 MG (malignant glioma cell); experiment: as above; format: cell-based; conditions: Homo sapiens, U-87 MG
Experimental: as §4, §5

COC(=O)C[C@](O)(CCCC(C)(C)OC(=O)c1cccnc1Cl)C(=O)O[C@@H]1C(OC)=C[C@]23CCCN2CCc2cc4c(cc2[C@H]13)OCO4 [BS-HH-066]
IC50 [1]: 0.003 µg/mL (≈ 0.00438 µM) | IC90 [1]: 0.01 µg/mL (≈ 0.0146 µM) | IC50 [2]: 0.005 µg/mL (≈ 0.0073 µM) | IC90 [2]: ≥ 16 µg/mL | IC50 [3]: 0.03 µg/mL (≈ 0.0438 µM) | IC90 [3]: 3.18 µg/mL (≈ 4.64 µM) | IC50 ([4]; Homo sapiens, Kasumi 1, MTT): 0.0007 µg/mL (≈ 0.00102 µM) | IC90 ([4]; Homo sapiens, Kasumi 1, MTT): 0.002 µg/mL (≈ 0.00292 µM) | improvement of anti-Kasumi-1 activity compared with homoharringtonine ([4]; vs HHT): more than 7 fold | IC50 [5]: 0.002 µg/mL (≈ 0.00292 µM) | IC90 [5]: 0.004 µg/mL (≈ 0.00584 µM) | IC50 [6]: 0.006 µg/mL (≈ 0.00876 µM) | IC90 [6]: 0.033 µg/mL (≈ 0.0482 µM) | IC50 (A549 (human lung cancer)): 0.03 µg/mL (≈ 0.0438 µM) | IC90 (A549 (human lung cancer)): > 16 µg/mL | IC50 [7]: 0.02 µg/mL (≈ 0.0292 µM) | IC90 [7]: 5.63 µg/mL (≈ 8.22 µM) | IC50 [8]: 0.03 µg/mL (≈ 0.0438 µM) | IC90 [8]: > 16 µg/mL | IC50 [9]: 0.049 µg/mL (≈ 0.0715 µM) | IC90 [9]: 16 µg/mL (≈ 23.4 µM) | IC50 [10]: 0.021 µg/mL (≈ 0.0306 µM) | IC90 [10]: 16 µg/mL (≈ 23.4 µM) | IC50 [11]: 0.025 µg/mL (≈ 0.0365 µM) | IC90 [11]: > 16 µg/mL | IC50 [12]: 0.0016 µg/mL (≈ 0.00234 µM) | IC90 [12]: 0.023 µg/mL (≈ 0.0336 µM) | IC50 (MG63 (osteosarcoma)): 0.0032 µg/mL (≈ 0.00467 µM) | IC90 (MG63 (osteosarcoma)): 0.2 µg/mL (≈ 0.292 µM) | IC50 [13]: 0.005 µg/mL (≈ 0.0073 µM) | IC90 [13]: 0.052 µg/mL (≈ 0.0759 µM) | IC50 [14]: 0.026 µg/mL (≈ 0.0379 µM) | IC90 [14]: > 16 µg/mL | IC50 (PC-3 (prostate cancer)): 0.1 µg/mL (≈ 0.146 µM) | IC90 (PC-3 (prostate cancer)): > 16 µg/mL | IC50 [15]: 0.003 µg/mL (≈ 0.00438 µM) | IC90 [15]: 0.023 µg/mL (≈ 0.0336 µM) | IC50 [16]: 0.051 µg/mL (≈ 0.0744 µM) | IC90 [16]: > 16 µg/mL | IC50 [17]: 0.007 µg/mL (≈ 0.0102 µM) | IC90 [17]: 0.048 µg/mL (≈ 0.0701 µM)

Source: patent US9428519B2, “Acylated derivative of homoharringtonine, preparation method therefor, and application thereof” (HANGZHOU BENSHENG PHARMACEUTICAL CO., LTD., priority 2011, dated 2016)
